Data: a melting point compilation (Tetko et al.; mined from patent text by program, amines drawn as free bases though some values may be those of a salt)

SMILES	melting point
Fc1cccc(F)c1C1=NC(c2ccc(-c3ccc(OCc4ccc(C(F)(F)F)cc4)cc3)cc2)CO1 (centres undefined)	166 °C
Cc1nnc(-c2ccc3occ(-c4ccc(S(C)=O)c(OC(F)(F)F)c4)c3c2)o1 (centres undefined)	182 to 183 °C
CCc1oc2ccc(C(C)C(=O)O)cc2c(=O)c1C (centres undefined)	196 to 198 °C
CC1=C(CC#N)CCc2ccccc21	48 to 49 °C
Cc1cc([N+](=O)[O-])c(C(=O)OC(C)C)cc1Oc1ccc(OC(F)(F)F)cc1	47 to 49 °C
N#Cc1c(N2CCCCC2)cc(-c2ccc3ccc4cccc5ccc2c3c45)c2c1Cc1ccccc1-2	168 to 169 °C
CCc1nc(Cc2ccc(NC(=O)/C=C/c3cnn(C)c3-c3ccc(F)cc3)cc2)cs1	178 to 179 °C
OCc1cc(OCc2ccccc2)c(OCc2ccccc2)cn1	96.6 °C
c1ccc2cc(CSCc3ccc4ccccc4c3)ccc2c1	119 to 121 °C
Cc1nnc2n1-c1ccccc1NC2(C)C	177 to 178 °C
CN1CC(O)N(c2cc(C(C)(C)C)on2)C1=O (centres undefined)	173 to 177 °C
COc1ccc(-c2c(C#N)c(CNS(=O)(=O)c3c(F)cccc3F)nn2-c2ccc(Cl)cc2Cl)cc1	170 °C
COc1cccc(NC(=O)COC(C)=O)c1C#N	131 to 132 °C
O=C1CCC(c2ccccc2)(c2ccccc2)C2CN(C(Cc3ccccc3)=NCCCc3ccccc3)CC12 (centres undefined)	144 °C
CCCOc1ccc(F)cc1-c1ccc(C(N)=O)c(=O)[nH]1	223 to 224 °C
CC1(C)Oc2ccc(S(=O)(=O)C(F)(F)F)cc2[C@@H](N2Cc3ccccc3C2=O)[C@@H]1O[N+](=O)[O-] (relative stereo)	190 °C
CS(=O)(=O)c1ccc(/C(=C\C2CCCCC2)C(=O)O)cc1C(F)(F)F	62 to 64 °C
Nc1ccc2c(c1)SN(CCCCN1CCN(c3ncccn3)CC1)C2	150 to 151 °C
CN(C)c1cc(Br)cc(Sc2ccc([N+](=O)[O-])cc2)c1	102 to 104 °C
CCCc1c(OCc2cccc(C(=O)NCCCCc3cccnc3)c2)ccc(C(C)=O)c1O	120 to 123 °C
OCc1ccnc2cc(Cl)ccc12	160 °C
CNC(=O)c1ccc(N2CCN(Cc3cc4c(c(OC)c3)OCC(=O)N4)CC2)c(C)c1	234 to 235 °C
Cn1cc(C(=O)O)c(=O)c2cc(F)c(F)cc21	284 to 287 °C
Cn1c(COc2ccc(C=C3SC(=O)NC3=O)cc2)nc2ccc(Sc3cc(C(C)(C)C)c(O)c(C(C)(C)C)c3)cc21	247 to 249 °C
CN(C(=O)CBr)c1ccc(OCC(=O)N[C@@H](CC(N)=O)C(=O)N[C@@H](Cc2ccccc2)[C@H](O)C(=O)N2CCC[C@H]2C(=O)NC(C)(C)C)cc1	116 to 122 °C

SMILES	melting point
N#Cc1cncc(NCc2ccccc2)c1	131 °C
ClCc1ccc(OCc2csc(-c3ccccc3)n2)cc1	98 to 99 °C
COc1c(S(N)(=O)=O)c(C)nn1C	144 to 146 °C
COC(=O)c1cc(-n2cnc(Br)c2)c(C(F)(F)F)cc1[N+](=O)[O-]	90 °C
O=C(OCc1ccccc1)[C@@H]1CCCN1C(=O)CNC1Cc2ccccc2C1	96 to 98 °C
O=S(=O)(Nc1ccc2c(OCc3nc(-c4ccc(F)cc4)no3)cccc2c1)C(F)(F)F	131 to 132 °C
Cc1cc(-c2cc(O)c(SCCc3ccccc3)c(=O)o2)ccc1OCc1ccccn1	75 to 77 °C
O=C(Cc1ccccc1)c1ccc[nH]1	92 to 94 °C
C=CCNC(=O)N1CC(OCc2ccc(C(F)(F)F)cc2)C1	120 °C
CCc1nc2c(N)nc3cc(OCCCOc4ccc5c(c4)nc(N)c4nc(CC)sc45)ccc3c2s1	242 to 243 °C
O=C(Nc1cccc(C(F)(F)F)c1)NC1N=C(c2ccccc2F)c2ccccc2N(CC(=O)N2CC3CCC(CC3)C2)C1=O (racemic)	226 to 227 °C
COc1cccc(CNc2nc(SCc3ccccc3)nc3nc[nH]c23)c1O	193 to 194 °C
COc1ccc(CN2C(=O)C(Oc3ccccc3)C2c2ccc(C(=O)O)cc2)cc1OC (centres undefined)	160 to 161 °C
CC1(C)Oc2ccc(S(=O)(=O)c3ccccc3)cc2C2OC21 (centres undefined)	103 to 105 °C
CCOC(=O)CC(=O)c1cn(C(c2ccccc2)(c2ccccc2)c2ccccc2)cn1	136 to 139 °C
CN(Cc1cccc(-c2ccc(CC3SC(=O)NC3=O)cc2)c1)C(=O)c1cc(Cl)cc(Cl)c1 (centres undefined)	106 °C
N#Cc1cc(F)c(NC(=O)C=C(N)C(F)(F)F)cc1F	127 °C
COc1ccc2[nH]c(C(C)C)c(C=O)c2c1	181 to 183 °C
O=C1Nc2ccccc2Sc2cc(C(F)(F)F)ccc21	216 to 217 °C
CC(=O)OC1COC(Oc2ccc(C(=S)c3ccc(C)cc3)cc2)C(OC(C)=O)C1OC(C)=O (centres undefined)	132 °C
COC(=O)c1ccc(OC)c(NC(=NCl)c2ccccc2)c1	120 °C
COc1ccc(C2(C)CNC(=O)O2)cc1OC(C)C (centres undefined)	67 to 69.5 °C
CCCCN(CCCC)c1ccc(C=CC2=CC(=CC=CC3=C(C#N)C(=C(C#N)C#N)OC3(C)C(F)(F)F)CC(C)(C)C2)c(OC)c1 (centres undefined)	196 to 201 °C
CC(C)(Oc1ccc(C#N)cc1)C(O)=Cc1ccncn1	115 to 117 °C
